Experimental data taken from PubChem BioAssay (NCI).
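How tested: cells in 96-well plates exposed to compound for 48 hours at five concentrations. GI50 marks 50% less growth. TGI denotes the concentration required for complete inhibition of growth.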

Assays:
Experiment in all cases: NCI-60 cell line screen, 48 h
786-0 renal = system: 786-0 renal
A498 renal = system: A498 renal
A549 NSCLC = system: A549 NSCLC
ACHN renal = system: ACHN renal
BT-549 breast = system: BT-549 breast
CAKI-1 renal = system: CAKI-1 renal
CCRF-CEM leukemia = system: CCRF-CEM leukemia
COLO 205 colon = system: COLO 205 colon
DU-145 prostate = system: DU-145 prostate
EKVX NSCLC = system: EKVX NSCLC
HCC-2998 colon = system: HCC-2998 colon
HCT-116 colon = system: HCT-116 colon
HCT-15 colon = system: HCT-15 colon
HL-60(TB) leukemia = system: HL-60(TB) leukemia
HOP-62 NSCLC = system: HOP-62 NSCLC
HS 578T breast = system: HS 578T breast
HT29 colon = system: HT29 colon
IGROV1 ovarian = system: IGROV1 ovarian
K-562 leukemia = system: K-562 leukemia
KM12 colon = system: KM12 colon
LOX IMVI melanoma = system: LOX IMVI melanoma
M14 melanoma = system: M14 melanoma
MALME-3M melanoma = system: MALME-3M melanoma
MCF7 breast = system: MCF7 breast
MDA-MB-231 breast = system: MDA-MB-231 breast
MDA-MB-435 = system: MDA-MB-435
MOLT-4 leukemia = system: MOLT-4 leukemia
NCI-H226 lung = system: NCI-H226 lung
NCI-H23 lung = system: NCI-H23 lung
NCI-H460 lung = system: NCI-H460 lung
NCI-H522 lung = system: NCI-H522 lung
NCI/ADR-RES ovarian = system: NCI/ADR-RES ovarian
OVCAR-3 ovarian = system: OVCAR-3 ovarian
OVCAR-4 ovarian = system: OVCAR-4 ovarian
OVCAR-5 ovarian = system: OVCAR-5 ovarian
OVCAR-8 ovarian = system: OVCAR-8 ovarian
PC-3 prostate = system: PC-3 prostate
RPMI-8226 leukemia = system: RPMI-8226 leukemia
RXF 393 renal = system: RXF 393 renal
SF-268 CNS = system: SF-268 CNS
SF-295 CNS = system: SF-295 CNS
SF-539 CNS = system: SF-539 CNS
SK-MEL-2 melanoma = system: SK-MEL-2 melanoma
SK-MEL-28 melanoma = system: SK-MEL-28 melanoma
SK-MEL-5 melanoma = system: SK-MEL-5 melanoma
SK-OV-3 ovarian = system: SK-OV-3 ovarian
SN12C renal = system: SN12C renal
SNB-19 CNS = system: SNB-19 CNS
SNB-75 CNS = system: SNB-75 CNS
SR leukemia = system: SR leukemia
SW-620 colon = system: SW-620 colon
T-47D breast = system: T-47D breast
TK-10 renal = system: TK-10 renal
U251 CNS = system: U251 CNS
UACC-62 melanoma = system: UACC-62 melanoma
UO-31 renal = system: UO-31 renal

Oc1ccc(CN(Cc2ccc(C(F)(F)F)cc2)Cc2ccc(O)c3ncccc23)c2cccnc12
GI50 (786-0 renal): 39.4 nM
TGI (786-0 renal): 5210 nM
GI50 (A498 renal): 40.9 nM
TGI (A498 renal): 97500 nM
GI50 (A549 NSCLC): 34.9 nM
TGI (A549 NSCLC): > 100000 nM
GI50 (ACHN renal): 25.6 nM
TGI (ACHN renal): > 100000 nM
GI50 (BT-549 breast): 29.7 nM
TGI (BT-549 breast): > 100000 nM
GI50 (CAKI-1 renal): 42.8 nM
GI50 (CCRF-CEM leukemia): 31.4 nM
TGI (CCRF-CEM leukemia): > 100000 nM
GI50 (COLO 205 colon): 91 nM
TGI (COLO 205 colon): > 100000 nM
GI50 (DU-145 prostate): 33.8 nM
TGI (DU-145 prostate): > 100000 nM
GI50 (EKVX NSCLC): 48.2 nM
TGI (EKVX NSCLC): > 100000 nM
GI50 (HCC-2998 colon): 49.6 nM
TGI (HCC-2998 colon): > 100000 nM
GI50 (HCT-116 colon): < 10 nM
TGI (HCT-116 colon): > 100000 nM
GI50 (HCT-15 colon): 24 nM
TGI (HCT-15 colon): > 100000 nM
GI50 (HL-60(TB) leukemia): 23.9 nM
GI50 (HOP-62 NSCLC): 31.9 nM
TGI (HOP-62 NSCLC): > 34600 nM
GI50 (HS 578T breast): 43.8 nM
TGI (HS 578T breast): > 100000 nM
GI50 (HT29 colon): 71.7 nM
TGI (HT29 colon): > 100000 nM
GI50 (IGROV1 ovarian): 58.4 nM
TGI (IGROV1 ovarian): > 100000 nM
GI50 (K-562 leukemia): 22.4 nM
TGI (K-562 leukemia): > 100000 nM
GI50 (KM12 colon): 41.5 nM
TGI (KM12 colon): > 100000 nM
GI50 (LOX IMVI melanoma): 38.1 nM
TGI (LOX IMVI melanoma): 15100 nM
GI50 (M14 melanoma): 32.6 nM
TGI (M14 melanoma): 2170 nM
GI50 (MALME-3M melanoma): 46.1 nM
TGI (MALME-3M melanoma): > 100000 nM
GI50 (MCF7 breast): < 10 nM
TGI (MCF7 breast): > 100000 nM
GI50 (MDA-MB-231 breast): 56.6 nM
TGI (MDA-MB-231 breast): > 100000 nM
GI50 (MDA-MB-435): 21.4 nM
TGI (MDA-MB-435): > 100000 nM
GI50 (MOLT-4 leukemia): 81.8 nM
TGI (MOLT-4 leukemia): > 100000 nM
GI50 (NCI-H226 lung): 51.2 nM
TGI (NCI-H226 lung): 11700 nM
GI50 (NCI-H23 lung): 24.5 nM
TGI (NCI-H23 lung): > 100000 nM
GI50 (NCI-H460 lung): < 10 nM
TGI (NCI-H460 lung): 111 nM
GI50 (NCI-H522 lung): 21.8 nM
TGI (NCI-H522 lung): 588 nM
GI50 (NCI/ADR-RES ovarian): < 10 nM
TGI (NCI/ADR-RES ovarian): > 100000 nM
GI50 (OVCAR-3 ovarian): 31.9 nM
TGI (OVCAR-3 ovarian): 60400 nM
GI50 (OVCAR-4 ovarian): 42.9 nM
TGI (OVCAR-4 ovarian): > 100000 nM
GI50 (OVCAR-5 ovarian): 73.6 nM
TGI (OVCAR-5 ovarian): > 100000 nM
GI50 (OVCAR-8 ovarian): < 14.2 nM
TGI (OVCAR-8 ovarian): > 100000 nM
GI50 (PC-3 prostate): < 14.6 nM
TGI (PC-3 prostate): > 100000 nM
GI50 (RPMI-8226 leukemia): 27.8 nM
TGI (RPMI-8226 leukemia): > 100000 nM
GI50 (RXF 393 renal): 48.5 nM
GI50 (SF-268 CNS): 48.7 nM
TGI (SF-268 CNS): > 100000 nM
GI50 (SF-295 CNS): 18.2 nM
TGI (SF-295 CNS): > 100000 nM
GI50 (SF-539 CNS): 46.5 nM
TGI (SF-539 CNS): > 64100 nM
GI50 (SK-MEL-2 melanoma): 23.2 nM
TGI (SK-MEL-2 melanoma): 80.4 nM
GI50 (SK-MEL-28 melanoma): 341 nM
TGI (SK-MEL-28 melanoma): > 100000 nM
GI50 (SK-MEL-5 melanoma): 27.8 nM
TGI (SK-MEL-5 melanoma): 160 nM
GI50 (SK-OV-3 ovarian): 65.5 nM
TGI (SK-OV-3 ovarian): > 48300 nM
GI50 (SN12C renal): 20.1 nM
TGI (SN12C renal): > 100000 nM
GI50 (SNB-19 CNS): 21.7 nM
TGI (SNB-19 CNS): > 100000 nM
GI50 (SNB-75 CNS): 17.2 nM
TGI (SNB-75 CNS): > 100000 nM
GI50 (SR leukemia): 40 nM
TGI (SR leukemia): > 100000 nM
GI50 (SW-620 colon): 25.1 nM
TGI (SW-620 colon): > 100000 nM
GI50 (T-47D breast): 28 nM
TGI (T-47D breast): > 100000 nM
GI50 (TK-10 renal): 16.5 nM
TGI (TK-10 renal): > 100000 nM
GI50 (U251 CNS): < 10 nM
TGI (U251 CNS): > 100000 nM
GI50 (UACC-62 melanoma): 39.5 nM
TGI (UACC-62 melanoma): 927 nM
GI50 (UO-31 renal): 27.9 nM
TGI (UO-31 renal): 2190 nM
